Literature values in patent US7087637B2, “Substituted indoles which are PARP inhibitors” (BASF AG, priority 2000, dated 2006).

Conditions: S. Cuzzocrea et al., Br. J. Pharmacol. 1997, 121, 1065–1074

NC(=O)c1cccc(N)c1 [3-aminobenzamide]
effects in a model of circulatory shock: protective effects
